In ChEMBL document CHEMBL1128800, “Diastereoselective synthesis of mixanpril, an orally active dual inhibitor of neutral endopeptidase and angiotensin converting enzyme” (Bioorg Med Chem Lett, 1995) one finds ED50, inhibition and Activity data, which are given here for 1 compound.

Experiment [1] deals with T1, Angiotensin-converting enzyme (Rattus norvegicus) (UniProt P47820).
T1 sequence (whole entry): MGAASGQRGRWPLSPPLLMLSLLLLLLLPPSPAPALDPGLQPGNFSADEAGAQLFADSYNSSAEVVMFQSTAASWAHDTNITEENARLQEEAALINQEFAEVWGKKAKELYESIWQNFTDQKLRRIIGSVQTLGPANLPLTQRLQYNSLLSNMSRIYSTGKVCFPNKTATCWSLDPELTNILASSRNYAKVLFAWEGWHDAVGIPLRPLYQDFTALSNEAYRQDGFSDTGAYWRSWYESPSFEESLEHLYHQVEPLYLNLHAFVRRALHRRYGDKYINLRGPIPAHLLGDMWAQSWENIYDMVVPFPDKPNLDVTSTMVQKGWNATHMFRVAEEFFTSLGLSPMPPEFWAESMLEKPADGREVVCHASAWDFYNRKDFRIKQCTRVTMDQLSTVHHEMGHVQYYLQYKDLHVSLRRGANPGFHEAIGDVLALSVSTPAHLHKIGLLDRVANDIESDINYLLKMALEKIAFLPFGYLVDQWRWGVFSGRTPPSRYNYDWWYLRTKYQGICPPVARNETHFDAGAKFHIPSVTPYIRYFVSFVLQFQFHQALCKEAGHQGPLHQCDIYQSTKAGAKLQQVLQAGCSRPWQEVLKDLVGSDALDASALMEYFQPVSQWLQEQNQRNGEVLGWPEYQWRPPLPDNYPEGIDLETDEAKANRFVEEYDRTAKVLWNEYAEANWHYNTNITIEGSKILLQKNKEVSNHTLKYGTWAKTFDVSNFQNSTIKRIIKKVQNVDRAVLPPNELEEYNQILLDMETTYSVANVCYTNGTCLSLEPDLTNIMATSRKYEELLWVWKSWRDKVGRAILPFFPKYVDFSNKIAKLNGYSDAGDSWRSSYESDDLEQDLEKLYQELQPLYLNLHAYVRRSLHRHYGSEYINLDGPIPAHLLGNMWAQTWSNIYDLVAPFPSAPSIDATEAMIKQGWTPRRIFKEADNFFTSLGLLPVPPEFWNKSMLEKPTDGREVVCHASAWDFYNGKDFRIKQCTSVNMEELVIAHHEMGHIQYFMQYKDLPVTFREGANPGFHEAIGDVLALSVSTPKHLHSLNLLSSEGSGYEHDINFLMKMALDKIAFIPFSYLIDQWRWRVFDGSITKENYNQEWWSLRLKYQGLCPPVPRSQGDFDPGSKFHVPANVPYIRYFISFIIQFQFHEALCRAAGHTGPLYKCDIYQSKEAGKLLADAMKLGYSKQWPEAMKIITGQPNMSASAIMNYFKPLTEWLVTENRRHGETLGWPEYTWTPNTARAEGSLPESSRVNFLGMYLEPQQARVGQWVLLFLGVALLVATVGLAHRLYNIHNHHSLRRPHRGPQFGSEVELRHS
The experiment can be described thus: Effective dose against plasmatic angiotensin converting enzyme (ACE) in anaesthetized rats. The conditions noted are these: Plasma.

In experiment [2] the target is T1, Angiotensin-converting enzyme (Rattus norvegicus). Put plainly: […] inhibitory activity against plasmatic angiotensin converting enzyme (ACE) in anaesthetized rats after oral administration of 10 mg/kg dose. More on the design: dose 10 mg/kg. It is filed as organism-based.
Experiment [3] has the same target. Put plainly: […] inhibitory activity against plasmatic angiotensin converting enzyme (ACE) in anaesthetized rats after oral administration of 100 mg/kg dose. It is filed as organism-based. Further details: dose 100 mg/kg.
Experiment [4] shares this target. Put plainly: […] inhibitory activity against plasmatic angiotensin converting enzyme (ACE) in anaesthetized rats after oral administration of 150 mg/kg dose. The class given is organism-based. More on the design: dose 150 mg/kg.
The target is the same in experiment [5]. The experiment can be described thus: […] inhibitory activity against plasmatic angiotensin converting enzyme (ACE) in anaesthetized rats after oral administration of 2.5 mg/kg dose. It is filed as organism-based. More on the design: dose 2.5 mg/kg.
For experiment [6] the target is unchanged. Put plainly: […] inhibitory activity against plasmatic angiotensin converting enzyme (ACE) in anaesthetized rats after oral administration of 25 mg/kg dose. More on the design: dose 25 mg/kg. It is filed as organism-based.
For experiment [7] the target is unchanged. Put plainly: […] inhibitory activity against plasmatic angiotensin converting enzyme (ACE) in anaesthetized rats after oral administration of 5 mg/kg dose. It is filed as organism-based. Further details: dose 5 mg/kg.
For experiment [8] the target is unchanged. Put plainly: […] inhibitory activity against plasmatic angiotensin converting enzyme (ACE) in anaesthetized rats after oral administration of 50 mg/kg dose. The class given is organism-based. More on the design: dose 50 mg/kg.
The target of experiment [9] is T2, Neprilysin (Rattus norvegicus) (UniProt P07861).
T2 sequence (whole entry): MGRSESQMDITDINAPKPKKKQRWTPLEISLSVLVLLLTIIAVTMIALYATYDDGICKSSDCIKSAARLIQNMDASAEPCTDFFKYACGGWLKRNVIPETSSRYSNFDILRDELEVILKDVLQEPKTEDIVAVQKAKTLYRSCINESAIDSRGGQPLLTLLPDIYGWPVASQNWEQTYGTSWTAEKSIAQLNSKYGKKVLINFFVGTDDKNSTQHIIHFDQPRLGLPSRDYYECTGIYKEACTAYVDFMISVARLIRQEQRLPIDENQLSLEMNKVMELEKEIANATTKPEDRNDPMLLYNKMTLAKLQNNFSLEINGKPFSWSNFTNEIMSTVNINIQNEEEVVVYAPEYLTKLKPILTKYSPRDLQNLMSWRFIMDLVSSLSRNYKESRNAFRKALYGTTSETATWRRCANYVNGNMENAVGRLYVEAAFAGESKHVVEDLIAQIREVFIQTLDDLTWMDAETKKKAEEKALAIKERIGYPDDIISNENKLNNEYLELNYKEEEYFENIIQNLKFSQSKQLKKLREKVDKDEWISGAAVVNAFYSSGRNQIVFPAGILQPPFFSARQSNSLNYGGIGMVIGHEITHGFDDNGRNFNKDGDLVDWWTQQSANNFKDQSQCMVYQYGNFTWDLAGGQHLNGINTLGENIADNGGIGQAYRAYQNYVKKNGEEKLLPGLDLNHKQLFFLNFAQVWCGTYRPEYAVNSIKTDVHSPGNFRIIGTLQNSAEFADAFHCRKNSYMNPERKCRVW
Put plainly: Tested for inhibitory activity against neutral endopeptidase at a dose of 2.5 mg/kg in rats; Active. It is filed as organism-based. Further details: dose 2.5 mg/kg.

Activity calls are given as the source filed them. The calls are words filed in the database; no cut-off is given here.

One may read the ED50 as the midpoint of the dose-response relation. Low readings indicate an effect at a small dose, high ones a need for a large dose. Usually inhibition stands for the percentage by which the read-out fell short of the control. As for `CC(NC(=O)C(CSC(=O)c1ccccc1)C(C)c1ccccc1)C(=O)O` (centres undefined), the ED50 in experiment [1] worked out at 12 mg/kg. In addition, the inhibition in [2] came out at 50%; in [3], 70%; in [4] it was 82%; in experiment [5], 25%; in experiment [6], 55%; in experiment [7], 35%. In [8], the inhibition amounted to 65%. In experiment [9], the result was Active.
